Assay results: US3962317A, “D-3,6-Diaminohexanoic acid 2-(carboxymethyl)-2-methylhydrazide, process of preparing and intermediates of said process” (priority 1974, dated 1976)
≈ marks a conversion by molar mass, not a printed value.

How the values were obtained:
Proteus mirabilis 4671 = test: Systemic lethal infection in mice, Proteus mirabilis 4671; assay type: in vivo, Charles River CD1 female mice; conditions: for Alive/Total Mice Tested 7 Days After Infection: 1 day prior to and immediately after infection
Experimental: (§1) The infections were administered to the mice as follows:
Proteus mirabilis 4671: intraperitoneal injection of a lethal dose consisting of 0.5 ml. of a 10^^-1.6 trypticase soy dilution of a 5 hour trypticase soy broth culture.
(§2) The D-3,6-diaminohexanoic acid 2-(carboxymethyl)-2-methylhydrazide was administered as follows:
Proteus mirabilis 4671: 0.5 ml. dose suspended in 0.2% aqueous agar was administered to groups of Charles River CD1 female mice, weighing 18-22 gm., 1 day prior to infection and then in a second dose immediately after infection at the levels indicated in Table III below.

Escherichia coli 311 [1] = test: Systemic lethal infection in mice, Escherichia coli 311; assay type: in vivo, Charles River CD1 female mice; conditions: for Alive/Total Mice Tested 7 Days After Infection: immediately after infection
Experimental: as §1
Escherichia coli 311: intraperitoneal infection of a lethal dose consisting of 0.5 ml. of a 10^^-3 trypticase soy dilution of a 5 hour trypticase soy broth culture.
as §2
Escherichia coli 311: 0.5 ml. dose suspended in 0.2% aqueous agar was administered to groups of Charles River CD1 female mice, weighing 18-22 gm., immediately after infection at the levels indicated in Table III below.

[2] = test system: Pseudomonas aeruginosa 12-4-4; test: MIC, agar dilution (called standard agar well diffusion assay); assay type: cell-based; conditions: 1244, nutrient agar, 37°C, 24 hours
Experimental: (§3) In this assay, the minimal inhibitory concentration (MIC) was determined by using twofold dilutions of the compound in nutrient agar. One ml. of each dilution was placed in a sterile Petri dish; 9 ml. of nutrient agar was added to each dish. Five hour cultures of the indicated organism in Trypticase Soy Broth were diluted 10^^-2 in nutrient broth. This dilution of each culture was transferred to the surface of the plates by using a Steers replicating device. […] The MIC of D-3,6-diaminohexanoic acid 2-(carboxymethyl)-2 -methylhydrazide against the indicated organisms are set forth in Table I below.

Escherichia coli No. 311 = test: as above; assay type: cell-based; conditions: nutrient agar, 37°C, 24 hours
Experimental: as §3

[3] = test system: Serratia marcescens Finland; test: as above; assay type: cell-based; conditions: nutrient agar, 37°C, 24 hours
Experimental: as §3

[4] = test system: Escherichia coli K-1972-1; test: as above; assay type: cell-based; conditions: K19721, nutrient agar, 37°C, 24 hours
Experimental: as §3

[5] = test system: Proteus mirabilis No. 4361; test: as above; assay type: cell-based; conditions: nutrient agar, 37°C, 24 hours
Experimental: as §3

Proteus vulgaris K-1972 = test: as above; assay type: cell-based; conditions: K1972, nutrient agar, 37°C, 24 hours
Experimental: as §3

[6] = test system: Enterococcus (S. faecalis) Isenberg; test: as above; assay type: cell-based; conditions: nutrient agar, 37°C, 24 hours
Experimental: as §3

[7] = test system: Pseudomonas aeruginosa PA7; test: as above; assay type: cell-based; conditions: nutrient agar, 37°C, 24 hours
Experimental: as §3

[8] = test system: Escherichia coli K-1972-2; test: as above; assay type: cell-based; conditions: K19722, nutrient agar, 37°C, 24 hours
Experimental: as §3

[9] = test system: Shigella flexneri (2a) RB; test: as above; assay type: cell-based; conditions: nutrient agar, 37°C, 24 hours
Experimental: as §3

[10] = test system: Enterobacter sp. K-1972-1; test: as above; assay type: cell-based; conditions: SP.K19721, nutrient agar, 37°C, 24 hours
Experimental: as §3

[11] = test system: Salmonella typhimurium K-1972; test: as above; assay type: cell-based; conditions: Salmonella enterica, nutrient agar, 37°C, 24 hours
Experimental: as §3

[12] = test system: Klebsiella pneumoniae K-1972-2; test: as above; assay type: cell-based; conditions: K19722, nutrient agar, 37°C, 24 hours
Experimental: as §3

[13] = test system: Herellea vaginicola Washington 885-863; test: as above; assay type: cell-based; conditions: nutrient agar, 37°C, 24 hours
Experimental: as §3

[14] = test system: Herellea vaginicola Hughes; test: as above; assay type: cell-based; conditions: nutrient agar, 37°C, 24 hours
Experimental: as §3

[15] = test system: Proteus mirabilis K-1972-16; test: as above; assay type: cell-based; conditions: K197216, nutrient agar, 37°C, 24 hours
Experimental: as §3

[16] = test system: Salmonella enteritidis K-1972; test: as above; assay type: cell-based; conditions: Salmonella enterica, nutrient agar, 37°C, 24 hours
Experimental: as §3

Klebsiella pneumoniae AD [17] = test: as above; assay type: cell-based; conditions: nutrient agar, 37°C, 24 hours
Experimental: as §3

[18] = test system: Proteus mirabilis K-1972-12; test: as above; assay type: cell-based; conditions: K197212, nutrient agar, 37°C, 24 hours
Experimental: as §3

Serratia marcescens K132 = test: as above; assay type: cell-based; conditions: nutrient agar, 37°C, 24 hours
Experimental: as §3

[19] = test system: Shigella flexneri (5) Citarella; test: as above; assay type: cell-based; conditions: nutrient agar, 37°C, 24 hours
Experimental: as §3

[20] = test system: Staphylococcus aureus Jackson No. 4; test: as above; assay type: cell-based; conditions: nutrient agar, 37°C, 24 hours
Experimental: as §3

[21] = test system: Staphylococcus aureus Morton No. 1169; test: as above; assay type: cell-based; conditions: nutrient agar, 37°C, 24 hours
Experimental: as §3

[22] = test system: Trichophyton mentagrophytes E11; test: Zone of inhibition, standard agar well diffusion assay; assay type: cell-based
Experimental: as §3
(§4) In another representative operation, the standard agar well diffusion assay was repeated with D-3,6-diaminohexanoic acid 2-(carboxymethyl)-2-methylhydrazide except that after incubation the zone of inhibition against the indicated organism is millimeters was determined.

[23] = test system: Proteus vulgaris ATCC 9484; test: as above; assay type: cell-based
Experimental: as §3, §4

[24] = test system: Staphylococcus aureus Rose ATCC 14154; test: as above; assay type: cell-based
Experimental: as §3, §4

[25] = test system: Enterobacter aerogenes 75; test: as above; assay type: cell-based
Experimental: as §3, §4

Escherichia coli 311 [26] = test: as above; assay type: cell-based
Experimental: as §3, §4

[27] = test system: Trichophyton tonsurans NIH 662; test: as above; assay type: cell-based
Experimental: as §3, §4

Candida albicans E 83 = test: as above; assay type: cell-based
Experimental: as §3, §4

[28] = test system: Pseudomonas aeruginosa ATCC 10145; test: as above; assay type: cell-based
Experimental: as §3, §4

Klebsiella pneumoniae AD [29] = test: as above; assay type: cell-based
Experimental: as §3, §4

[30] = test system: Cryptococcus neoformans E 183; test: as above; assay type: cell-based
Experimental: as §3, §4

[31] = test system: Salmonella typhosa ATCC 6539; test: as above; assay type: cell-based
Experimental: as §3, §4

[32] = test system: Mycobacterium smegmatis ATCC 606; test: as above; assay type: cell-based
Experimental: as §3, §4

[33] = test system: Microsporum canis ATCC 10214; test: as above; assay type: cell-based
Experimental: as §3, §4

[34] = test system: standard laboratory microorganisms; test: Standard agar well diffusion assay against a variety of standard laboratory microorganisms; assay type: cell-based

**Q.** What does the source list for `CN(CC(=O)O)NC(=O)C[C@H](N)CCCN` [D-3,6-diaminohexanoic acid 2-(carboxymethyl)-2-methylhydrazide]?
**A.** Alive/Total Mice Tested 7 Days After Infection (Proteus mirabilis 4671; 64 mg./kg. subcutaneous): 5/5; Alive/Total Mice Tested 7 Days After Infection (Proteus mirabilis 4671; 128 mg./kg. subcutaneous): 5/5; Alive/Total Mice Tested 7 Days After Infection (Proteus mirabilis 4671; 256 mg./kg. subcutaneous): 5/5; in vivo activity against systemic lethal infection (Proteus mirabilis 4671; Proteus mirabilis infection in mice): controlled systemic lethal infections; Alive/Total Mice Tested 7 Days After Infection (Escherichia coli 311 [1]; 4 mg./kg. subcutaneous): 0/5; Alive/Total Mice Tested 7 Days After Infection (Escherichia coli 311 [1]; 8 mg./kg. subcutaneous): 0/5; Alive/Total Mice Tested 7 Days After Infection (Escherichia coli 311 [1]; 16 mg./kg. subcutaneous): 0/5; Alive/Total Mice Tested 7 Days After Infection (Escherichia coli 311 [1]; 32 mg./kg. subcutaneous): 3/5; Alive/Total Mice Tested 7 Days After Infection (Escherichia coli 311 [1]; 64 mg./kg. subcutaneous): 5/5; in vivo activity against systemic lethal infection (Escherichia coli 311 [1]; Escherichia coli infection in mice): controlled systemic lethal infections; MIC [2]: 64 µg/mL (≈ 276 µM); MIC (Escherichia coli No. 311): 16 µg/mL (≈ 68.9 µM); MIC [3]: 64 µg/mL (≈ 276 µM); MIC [4]: 16 µg/mL (≈ 68.9 µM); MIC [5]: 64 µg/mL (≈ 276 µM); MIC (Proteus vulgaris K-1972): 64 µg/mL (≈ 276 µM); MIC [6]: > 128 µg/mL; MIC [7]: 64 µg/mL (≈ 276 µM); MIC [8]: 16 µg/mL (≈ 68.9 µM); MIC [9]: 4 µg/mL (≈ 17.2 µM); MIC [10]: 32 µg/mL (≈ 138 µM); MIC [11]: 32 µg/mL (≈ 138 µM); MIC [12]: 32 µg/mL (≈ 138 µM); MIC [13]: 32 µg/mL (≈ 138 µM); MIC [14]: 32 µg/mL (≈ 138 µM); MIC [15]: 64 µg/mL (≈ 276 µM); MIC [16]: 32 µg/mL (≈ 138 µM); MIC (Klebsiella pneumoniae AD [17]): 4 µg/mL (≈ 17.2 µM); MIC [18]: 64 µg/mL (≈ 276 µM); MIC (Serratia marcescens K132): 32 µg/mL (≈ 138 µM); MIC [19]: 64 µg/mL (≈ 276 µM); MIC [20]: 64 µg/mL (≈ 276 µM); MIC [21]: 32 µg/mL (≈ 138 µM); Zone of Inhibition [22]: 100 mm.; Zone of Inhibition [23]: 25 mm.; Zone of Inhibition [24]: 100 mm.; Zone of Inhibition [25]: 50 mm.; Zone of Inhibition (Escherichia coli 311 [26]): 25 mm.; Zone of Inhibition [27]: 25 mm.; Zone of Inhibition (Candida albicans E 83): 50 mm.; Zone of Inhibition [28]: 50 mm.; Zone of Inhibition (Klebsiella pneumoniae AD [29]): 10 mm.; Zone of Inhibition [30]: 10 mm.; Zone of Inhibition [31]: 25 mm.; Zone of Inhibition [32]: 100 mm.; Zone of Inhibition [33]: 250 mm.; antibacterial and antifungal activity in vitro [34]: broad-spectrum antibacterial and antifungal activity in vitro
